Laboratory results as given in paper PMC3760131 (Acta Crystallographica Section D: Biological Crystallography, 2013).
Where two headings read alike, the source gives them in different places. Where a SMILES comes first, the peptide text is derived from it.

Key:
XIAP BIR2 = biological target: T1, XIAP BIR2 (Homo sapiens, UniProt P98170); experiment: BIR2 TR-FRET assay (displacement of AVPI-derived peptide); assay type: binding
T1 construct: 6×histidine-tagged BIR2 (amino acids 124–240) or BIR3 (amino acids 241–356) domain of the XIAP protein
Method: (§1) Time-resolved fluorescence resonance energy transfer (TR-FRET) signals were measured 1 h later at room temperature. Compound potency was assessed at ten serially diluted concentrations. The percentage of inhibition at each concentration was determined to generate an IC50 value for each compound.

XIAP BIR3 = biological target: T2, XIAP BIR3 (Homo sapiens, UniProt P98170); experiment: BIR3 TR-FRET assay (displacement of AVPI-derived peptide); assay type: binding
T2 construct: 6×histidine-tagged BIR2 (amino acids 124–240) or BIR3 (amino acids 241–356) domain of the XIAP protein
Method: as §1

[1] = biological target: 6×histidine-tagged BIR2 (amino acids 124–240) domain of the XIAP protein (UniProt P98170); experiment: AlphaScreen or HTRF; TR-FRET competition: 10 nM 6xHis BIR2 or BIR3 domain with 20 nM …-(epsilon-biotin)-OH; europium streptavidin (1.5 nM) and allophycocyanin anti-histidine antibody (15 nM); 50 mM Tris-HCl pH 7.5, 100 mM NaCl, 1 mM DTT, 0.1 mg/ml BSA; 45 min at 310 K, read 1 h later at room temperature; ten concentrations; Ki from IC50 by Cheng-Prusoff
[2] = biological target: the molecule itself; experiment: crystal structure; apo BIR2 crystals, sitting drop, 1.7-1.9 M ammonium sulfate, 125 mM bis-tris propane pH 7.0, room temperature; two molecules (A and B)
[3] = FRET-based displacement of AVPI-derived peptide from 6xHis BIR2 (124-240), Ki from IC50 by Cheng-Prusoff, read-out: BIR2 K i
[4] = FRET-based displacement of AVPI-derived peptide from 6xHis BIR3 (241-356), Ki from IC50 by Cheng-Prusoff, read-out: BIR3 K i

T2 sequence (P98170 241-356): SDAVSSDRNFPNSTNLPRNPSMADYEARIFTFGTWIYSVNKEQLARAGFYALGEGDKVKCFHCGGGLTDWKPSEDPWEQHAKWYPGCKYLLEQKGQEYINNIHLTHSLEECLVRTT
T1 sequence (P98170 124-240): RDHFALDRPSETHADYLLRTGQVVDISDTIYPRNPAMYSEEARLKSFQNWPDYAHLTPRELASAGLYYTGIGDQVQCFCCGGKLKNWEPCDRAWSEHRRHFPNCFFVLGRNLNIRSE
Chain of 6×histidine-tagged BIR2 (amino acids 124–240) domain of the XIAP protein (P98170 124-240): as above

Row | Molecule | Ki (XIAP BIR2; [3]) | Ki (XIAP BIR3; [4]) | other results
1 | CC(C)[C@H](NC(=O)[C@H](C)NC(=O)[C@@H](NC(=O)[C@H](C)N)C(C)C)C(=O)O [AVAV] (H-AVAV-OH) | 1.87 µM | 26.1 µM | 
2 | C[C@H](N)C(=O)N[C@H](C(=O)N[C@@H](C)C(=O)N[C@@H](C)C(=O)O)[C@@H](C)O [ATAA] (H-ATAA-OH) | 1.7 µM | > 47 µM | activity against BIR3 (in words) (XIAP BIR3; TR-FRET assay): inactive
3 | CC[C@H](C)[C@H](NC(=O)[C@@H]1CCCN1C(=O)[C@@H](NC(=O)[C@H](C)N)[C@@H](C)CC)C(=O)O [AIPI] (H-AIPI-OH) | 3.11 µM | 0.08 µM | 
4 | CC[C@H](C)[C@H](NC(=O)[C@@H]1CCCN1C(=O)[C@H](CCSC)NC(=O)[C@@H](N)CO)C(=O)O [SMPI] (H-SMPI-OH) | 34 µM | 12.5 µM | 
5 | CSCC[C@H](NC(=O)[C@@H](N)CO)C(=O)N[C@@H](CCCNC(=N)N)C(=O)N[C@H](C(=O)O)C(C)C [SMRV] (H-SMRV-OH) | 12.3 µM | > 47 µM | 
6 | C[C@H](N)C(=O)N[C@@H](CCCNC(=N)N)C(=O)N1CCC[C@H]1C(=O)N[C@@H](CCCNC(=N)N)C(=O)O [ARPR] (H-ARPR-OH) | > 53 µM |  | 
7 | CC[C@H](C)[C@H](NC(=O)[C@H](C)N)C(=O)N[C@@H](C)C(=O)N[C@H](C(=O)O)C(C)C [AIAV] (H-AIAV-OH) |  |  | Ki (XIAP BIR2): 1.87 µM; Ki (XIAP BIR3): 28.2 µM
8 | CC(C)[C@H](NC(=O)[C@@H](NC(=O)[C@@H](NC(=O)[C@H](C)N)C(C)C)C(C)C)C(=O)O [AVVV] (H-AVVV-OH) | 2.54 µM |  | 
9 | CC[C@H](C)[C@H](NC(=O)[C@H](CCCNC(=N)N)NC(=O)[C@H](CCSC)NC(=O)[C@H](C)N)C(=O)O [AMRI] (H-AMRI-OH) | 3.52 µM | 5.2 µM | 
10 | CSCC[C@H](NC(=O)[C@H](C)N)C(=O)N[C@@H](CCCNC(=N)N)C(=O)N[C@H](C(=O)O)C(C)C [AMRV] (H-AMRV-OH) | 2.41 µM | 32.9 µM | 
11 | CC(C)[C@H](NC(=O)[C@H](C)NC(=O)[C@@H](NC(=O)[C@H](C)N)[C@@H](C)O)C(=O)O [ATAV] (H-ATAV-OH) | 2.17 µM | 32.3 µM | 
12 | SMRV |  |  | Ki [1]: 12.2 µM
13 | XIAP BIR2(152–236;C202A,C213G) (domain or fragment, human, printed as hBIR2; Two molecules (A and B) in the crystal; also called hBIR2(152–236;C202A,C213G); BIR2 domain of XIAP; source: E. coli Rosetta2(DE3)pLysS, purified (Ni-NTA, TEV cleavage, Superdex 75); not shown: His6, N-terminal, cleaved) GTIYPRNPAMYSEEARLKSFQNWPDYAHLTPRELASAGLYYTGIGDQVQCFACGGKLKNWEPGDRAWSEHRRHFPNCFFVLGRNLN |  |  | binding result [2]: binds
